Where no end group is shown, it is not given here.
Experiments:
Assay type in all cases: in vivo
[1] = tested on: EAE in C57BL/6 mice immunized with MOG peptide 35-55; experiment: Oral ACTH treatment of EAE mice, clinical score; design: key to Clinical Score: 0 = no disease to 6 = paraplegia with severe weakness/ataxia
Experimental: EAE is a T cell mediated inflammatory autoimmune process of the CNS that resembles in some aspects the human demyelinating disease multiple sclerosis. It thus provides a useful animal model for the evaluation of potential therapies for MS. […] This protocol mimics clinical practice since patients are treated with ACTHAR® Gel after they experience a clinical exacerbation of their disease, albeit clinical treatment is via intramuscular injection.
Clinical severity is graded daily by a blinded observer as follows: 0=no disease; 1=minimal or mild hind limb weakness (associated with limp tail); 2=moderate hind limb weakness or mild ataxia (waddling gait and/or poor righting ability); 3=moderate to severe hind limb weakness; 4=severe hind limb weakness or moderate ataxia; 5=paraplegia with no more than moderate four limb weakness; 6=paraplegia with severe four limb weakness or severe ataxia. […]

[2] = tested on: EAE in C57BL/6 mice immunized with MOG peptide 35-55; experiment: Spinal cord foci of inflammation after oral ACTH in EAE mice; conditions: Ex 1-A, control mock placebo group 4.72±0.34
Experimental: Following administration, clinical outcome is measured in at least two ways: by comparing the difference between group active treatment scores and placebo group scores from day 26-33 post immunization, and comparing group mean scores directly (day 17-35 post-immunization). Following sacrifice, spinal cords are removed and evaluated independently for foci of inflammation by a blinded observer.

[3] = Toxicity of oral ACTH administered over an extended time period; conditions: orally administered to mice over an extended time period

SYSMEHFRWGKPVGKKRRPVKVYPDGAEDQLAEAFPLEF [ACTH]
recovery from EAE attack compared to placebo, difference between group active treatment and placebo group scores ([1]; Ex 1-A, 10 or 1000 microgram oral dose, 10 microgram p<0.03, 1000 microgram p<0.05): significantly improved recovery
recovery compared to placebo, comparing group mean scores directly ([1]; Ex 1-A, oral doses of 10, 100, and 1000 microgram): significantly faster recovery
recovery from EAE attack compared to placebo, difference between group active treatment and group placebo scores ([1]; Ex 1-B, 10 IU p<0.0001, 100 IU p<0.0003, 1000 IU p<0.0007): significantly improved recovery
recovery from EAE attack compared to placebo, comparing group mean scores directly ([1]; Ex 1-B, oral 10 and 1000 IU, 10 IU p<0.00001, 100 IU p<0.00006, 1000 IU p<0.00003): significantly improved recovery
Clinical Score ([1]; Table 1, Ex 1-A, ACTH 10 microgram oral daily, day 28, control 2.88): 1.38
Clinical Score ([1]; Table 1, Ex 1-A, ACTH 10 microgram oral daily, day 32, control 3): 1.38
Clinical Score ([1]; Table 1, Ex 1-A, ACTH 10 microgram oral daily, day 33, control 3): 1.375
Clinical Score ([1]; Table 1, Ex 1-A, ACTH 10 microgram oral daily, day 35, control 3.13): 1.38
Clinical Score ([1]; Table 1, Ex 1-A, ACTH 100 microgram oral daily, day 22, control 2.63): 2.5
Clinical Score ([1]; Table 2, Ex 1-B, 1000 IU oral daily, day 40, control […]): 1.13
Clinical Score ([1]; Table 2, Ex 1-B, ACTH 10 IU oral daily, day 32, control […]): 1.38
Clinical Score ([1]; Table 2, Ex 1-B, ACTH 10 IU oral daily, day 33, control 2): 1
Clinical Score ([1]; Table 2, Ex 1-B, ACTH 10 IU oral daily, day 40, control […]): 1.25
Clinical Score ([1]; Table 2, Ex 1-B, ACTH 100 IU oral daily, day 32, control […]): 1.38
Clinical Score ([1]; Table 2, Ex 1-B, ACTH 100 IU oral daily, day 40, control […]): 1.38
mean group inflammatory score (inflammatory foci, spinal cord) ([2]; 10 microgram fed group, p<0.008): 3.05±0.3
mean group inflammatory score (inflammatory foci, spinal cord) ([2]; 1000 microgram fed group, p<0.00002): 2.27±0.23
toxicity [3]: no detectable toxicity

From patent US8758770B2 (Research Development Foundation, priority 2006, dated 2014)
